Data from patent US9895439B2, “Combined treatment with netrin-1 interfering drug and chemotherapeutic drug” (NETRIS PHARMA, priority 2012, dated 2018).
Numbered stars: 1 amine (or outer) side, 2 acyl side, 3 side chain; on linkers, the order of the positions; unused ones are H or OH. Bridge positions count the residues as written; N and C are the ends. Square brackets hold non-standard residues; d marks the D form. Peptide text beside a SMILES is read from it. I, II: the chains in the order shown. Actinocin(9to1) = Cc1c2oc3c(C)ccc(C(=O)[*:1])c3nc-2c(C(=O)[*:2])c(N)c1=O; NMeV = CN[C@H](C(=O)O)C(C)C; Sar = CNCC(=O)O

Legend:
[1] = test system: DCC expression in panel of 15 cancer cell lines; settings: drug at IC10, IC30, IC50 or ICMAX, 24 hours
[2] = test system: Netrin-1 gene expression in A549 lung cancer cell line; assay: Netrin-1 gene expression by quantitative RT-PCR in A549 cells; type: cell-based, human; settings: 24 hours
[3] = test system: Netrin-1 protein in A549 cells; assay: Netrin-1 protein levels by western blotting in A549 cells; type: cell-based, human; settings: A549, 1 μM and 2 μM Doxorubicin, 48 hours, normalized to β-actin
Experimental: For immunoblot analysis, cells were lysed by sonication in modified RIPA buffer (50 mM Tris-HCl, pH7.5, 150 mM NaCl, 1% NP-40, 0.5% sodium deoxycholate, 0.1% SDS, 1 mM EDTA, protease inhibitor cocktail and 5 mM DTT) and incubated 1 h at 4° C. Cellular debris were pelletted by centrifugation (10.000 g 15′ at 4° C.) and protein extracts (200 μg per lane) were loaded onto 10% SDS-polyacrylamide gels and blotted onto PVDF sheets (Millipore Corporation, Billerica, Mass., U.S.A.). Filters were blocked with 10% non-fat dried milk and 5% BSA in PBS/0.1% Tween 20 (PBS-T) over-night and then incubated for 2 h with rabbit polyclonal α-netrin-1 (dilution 1:500, clone H104, Santa Cruz Biotechnology, Santa Cruz, Calif., USA) and mouse monoclonal β-actin (Santa Cruz Biotechnologies) antibodies. After three washes with PBS-T, filters were incubated with the appropriate HRP-conjugated secondary antibody (1:10000, Jackson ImmunoResearch, Suffolk, UK) for 1 h. Detection was performed using West Dura Chemiluminescence System (Pierce, Rockford, Ill., U.S.A.).

[4] = test system: DCC gene expression in A549 cells; assay: Netrin-1 receptor gene expression in A549 cells: DCC; type: cell-based, human; settings: A549 cells following Doxorubicin treatment
[5] = test system: UNC5A gene expression in A549 cells; assay: Netrin-1 receptor gene expression in A549 cells: UNC5A; type: cell-based, human; settings: A549 cells following Doxorubicin treatment
[6] = test system: UNC5B gene expression in A549 cells; assay: Netrin-1 receptor gene expression in A549 cells: UNC5B; type: cell-based, human
[7] = test system: UNC5C gene expression in A549 cells; assay: Netrin-1 receptor gene expression in A549 cells: UNC5C; type: cell-based, human; settings: A549 cells following Doxorubicin treatment
[8] = test system: UNC5D gene expression in A549 cells; assay: Netrin-1 receptor gene expression in A549 cells: UNC5D; type: cell-based, human; settings: A549 cells following Doxorubicin treatment
A549 cells [9] = assay: Caspase-3 activity assay in A549 cells; type: cell-based, human; settings: A549 transfected with scramble siRNA (siCTRL), Doxorubicin 24 hours
Experimental: (§1) FIGS. 13-14: Netrin-1 silencing triggers apoptosis in combination with Doxorubicin treatment. A549 cells were transfected as in (FIGS. 10-12), and treated with the indicated Doxorubicin concentrations for 24 hours. […] DoxoR, Doxorubicin.

A549 cells [10] = assay: DNA fragmentation in A549 cells; type: cell-based, human; settings: A549 transfected with scramble siRNA (siCTRL), Doxorubicin 24 hours
Experimental: as §1

[11] = test system: A549 cells engrafted in nude mice; assay: A549 xenograft in athymic nude mice, tumor growth; type: in vivo; settings: i.p. twice a week for two weeks, TRAP-netrin^UNC5A 20 mg/kg, Doxorubicin 2 mg/kg, alone or combined
Experimental: FIG. 22: Netrin-1 interfering potentiates Doxorubicin anti-cancer effect in a preclinical animal model. A549 cells were engrafted in seven-weeks old female athymic nude mice. Once tumors reached a 100 mm^3-volume, mice were treated intraperitoneally with TRAP-netrin^UNC5A (20 mg/kg), Doxorubicin (2 mg/kg) or with a combination of both drugs, twice a week for two weeks. As a control, mice were injected with PBS. Histogram represents tumor volume growth for each group as a function of days post-xenografts.
Seven-week-old (20-22 g body weight) female athymic nu/nu mice were obtained from Charles River animal facility. The mice were housed in sterilized filter-topped cages and maintained in a pathogen-free animal facility. A549 cells were implanted by s.c. injection of 10^7 cells in 200 μL of PBS into the right flank of the mice. Once tumors were established (V≈100 mm^3), mice were treated with netrin-1 interfering drugs and/or cytotoxic drugs for two weeks. Tumor sizes were measured with a caliper. The tumor volume was calculated with the formula v=0.5*(length*width^2). At the end of the treatment, tumors were harvested, weighted and were embedded in 7.5% gelatin—0.12M sucrose and sectioned into 20 μm slices.
We then assessed whether the in vitro effect seen above could be translated in vivo in a therapeutic perspective. […]

[12] = test system: Netrin-1 gene expression in H460 lung cancer cell line; assay: Netrin-1 gene expression by quantitative RT-PCR in H460 cells; settings: H460, 2 μM Doxorubicin, 24 hours, normalized with GAPDH, compared to not-treated cells
[13] = test system: UNC5B expression in panel of 15 cancer cell lines; settings: drug at IC10, IC30, IC50 or ICMAX, 24 hours
[14] = test system: UNC5D expression in panel of 15 cancer cell lines; settings: drug at IC10, IC30, IC50 or ICMAX, 24 hours
A549 cells [15] = assay: Cell death rate by ToxiLight bioluminescent cytotoxicity assay in A549 cells; settings: 48 hours; for Potentiation of Doxorubicin-induced cell death (toxilight): A549, 2 μg/mL fusion protein plus Doxorubicin
Experimental: Cell death rate (FIG. 10), measured by toxilight kit as described in materials and methods section, and cell survival (FIG. 11), was evaluated 48 hours after treatment. Results were normalized to control, untreated cells.
A549 cells were transfected with scramble siRNA (siCTRL), netrin-1-specific siRNA (siNet), UNC5B-specific siRNA (siUnc5B) and with a combination of netrin-1 and UNC5B-targeting siRNA. 24 hours after transfection, cells were treated with the indicated Doxorubicin concentrations for 48 hours, and cell death rate was measured by toxilight and normalized to control, untreated cells.
FIGS. 16-17: A549 cells were treated for 48 hours with the indicated Doxorubicin concentrations in presence or not of 2 μg/mL TRAP-netrin^DCC (FIG. 16) and TRAP-netrin^Unc5A (FIG. 17). […] Results were normalized to untreated cells. *, P<0.05; **, P<0.01; ***, P<0.001.
Cell death was evaluated by means of different methods. For total cell death assays, 5*10^3 cells per well were grown in 96-well plate in serum-poor medium and treated with Doxorubicin. 48 hours later, cell death was evaluated using the bioluminescent cytotoxicity assay ToxiLight (Lonza, Basel, Switzerland), according to manufacturer's instruction. […] Cell survival was measured by MTS assay (CellTiter 96 AQueous One Solution Cell Proliferation Assay, Promega) in 96-well plates. MTS assay was performed according to the manufacturer's procedures on 3*10^3 cells grown in serum-poor medium for 16 hours and then treated for 48 hours with the indicated Doxorubicin concentrations in serum-free medium.

MiaPacA cells = assay: Cell survival by MTS assay in MiaPacA cells; type: cell-based, human; settings: 48 hours
[16] = test system: netrin-1 expressing tumor cells; assay: Death of netrin-1 expressing tumor cells in vitro (not shown); type: cell-based; settings: data not shown
A549 cells [17] = assay: Cell survival by MTS assay in A549 cells; settings: 48 hours
Experimental: FIGS. 18-19: A549 cells were treated with PBS or 2 μg/mL TRAP-netrin^Unc5A, in presence of the indicated concentrations of 5-Fluorouracil (5-FU, FIG. 18) or Cisplatin (FIG. 19). 48 hours after co-treatment, cell survival was measured by MTS and normalized to untreated cells. *, P<0.05; **, P<0.01; ***, P<0.001.
Cell survival was measured by MTS assay (CellTiter 96 AQueous One Solution Cell Proliferation Assay, Promega) in 96-well plates.

O=c1[nH]cc(F)c(=O)[nH]1 [5FU, 5-Fluorouracil]
cell lines with up-regulation of DCC [1]: 43%

Cc1c2oc3c(C)ccc(C(=O)N[C@@H]4C(=O)N[C@H](C(C)C)C(=O)N5CCC[C@H]5C(=O)N(C)CC(=O)N(C)[C@@H](C(C)C)C(=O)O[C@@H]4C)c3nc-2c(C(=O)N[C@@H]2C(=O)N[C@H](C(C)C)C(=O)N3CCC[C@H]3C(=O)N(C)CC(=O)N(C)[C@@H](C(C)C)C(=O)O[C@@H]2C)c(N)c1=O [Actinomycin D] (I: T[dV]P[Sar][NMeV] / II: T[dV]P[Sar][NMeV]; ester I:1-I:C, II:1-II:C; linker I:N-II:N via Actinocin(9to1))
Effect on Doxorubicin-mediated netrin-1 up-regulation ([2]; A549, 2 μM Doxorubicin plus Actinomycin D 100 μg/ml): fully prevents

N.N.[Cl][Pt][Cl] [Cisplatin]
cell lines with up-regulation of DCC [1]: 36%

COc1cccc2c1C(=O)c1c(O)c3c(c(O)c1C2=O)C[C@@](O)(C(=O)CO)C[C@@H]3O[C@H]1C[C@H](N)[C@H](O)[C@H](C)O1 [Doxorubicin]
netrin-1 mRNA level increase ([2]; A549, 2 μM Doxorubicin, normalized with GAPDH, compared to not-treated cells): 430 fold | Netrin-1 protein levels [3]: strongly accumulated | DCC gene expression [4]: significantly up-regulated | UNC5A gene expression [5]: significantly up-regulated | UNC5B gene expression ([6]; A549 cells following Doxorubicin treatment, result in words): significantly up-regulated | UNC5B receptor level increase ([6]; A549 cells treated with Doxorubicin): 44 folds | UNC5C gene expression [7]: non-significant variations | UNC5D gene expression [8]: non-significant variations | Apoptosis (active caspase-3) (A549 cells [9]): failed to induce apoptosis | Apoptosis (DNA fragmentation) (A549 cells [10]): failed to induce apoptosis | Tumor growth inhibition [11]: detectable but weak tumor growth inhibiting effect | netrin-1 mRNA level increase [12]: 300 fold | cell lines with up-regulation of DCC [1]: 87% | cell lines with up-regulation of UNC5B [13]: 80% | cell lines with up-regulation of UNC5D [14]: 67% | Cell death rate and cell survival under Doxorubicin (A549 cells [15]; A549 scramble siRNA-transfected cells, increasing Doxorubicin concentrations): general resistance

CC(=O)O[C@H]1C(=O)[C@@]2(C)[C@H]([C@H](OC(=O)c3ccccc3)[C@]3(O)C[C@H](OC(=O)[C@H](O)[C@@H](NC(=O)c4ccccc4)c4ccccc4)C(C)=C1C3(C)C)[C@]1(OC(C)=O)CO[C@@H]1C[C@@H]2O [Taxol, paclitaxel]
cell lines with up-regulation of DCC [1]: 53%

TRAP-netrin^UNC5A: two immunoglobin (Ig1-Ig2) domains of the UNC5A ectodomain fused to IgG1 Fc portion; SEQ ID NO: 1
Cell death, co-treatment with 5FU (cell survival by MTS) (MiaPacA cells; 2 μg/mL fusion protein plus 5FU): potentiated cell death | Cell death, co-treatment with Doxorubicin (cell survival by MTS) (MiaPacA cells; 2 μg/mL fusion protein plus Doxorubicin): potentiated cell death | Tumor growth inhibition [11]: detectable but weak tumor growth inhibiting effect | Death of netrin-1 expressing tumor cells in vitro [16]: trigger death of netrin-1 expressing tumor cells | Potentiating effect on cell death, co-treatment with 5FU (cell survival by MTS) (A549 cells [17]; A549, 2 μg/mL fusion protein plus 5FU): Comparable potentiating effect on cell death | Potentiating effect on cell death, co-treatment with Cisplatin (cell survival by MTS) (A549 cells [17]; A549, 2 μg/mL fusion protein plus Cisplatin): Comparable potentiating effect on cell death | Potentiation of Doxorubicin-induced cell death (toxilight) (A549 cells [15]): strongly potentiate

B1: TRAP-netric^DCC: fifth fibronectin domain of DCC ectodomain fused to IgG1 Fc portion (protein)
chain: PPVGVQAVALTHDAVRVSWADNSVPKNQKTSEVRLYTVRWRTSFSASAKYKSEDTTSLSYTATGLKPNTMYEFSVMVTKNRRSSTWSMTAHATTYEA
modifications: left off: a dimerising Fc or GST
notes: fifth fibronectin domain of DCC ectodomain fused to IgG1 Fc portion
Death of netrin-1 expressing tumor cells in vitro [16]: trigger death of netrin-1 expressing tumor cells | Potentiation of Doxorubicin-induced cell death (toxilight) (A549 cells [15]): strongly potentiate
